Laboratory results as given in patent publication US20210260018A1, “COMPOSITION FOR TREATING FIBROTIC DISEASES, […] THI[…] AS ACTIVE INGREDIENT” (Cellion Biomed Inc., priority 2018, published 2021).

How the values were obtained:
KCa2.3 channel [1] = assay: KCa2.3 channel protein expression in hepatic stellate cells (western blotting); type: cell-based, human; settings: exposure for 24 hours
Protocol: (§1) Fibroblasts (CRL-2795; American Type Culture Collection, VA) were cultured in a Dulbecco's Modified Eagle Medium (Hyclone, Logan, Utah), human uterine microvascular endothelial cells (PromoCell GmbH, Heidelberg, Germany) were cultured in an MV2 medium (PromoCell GmbH), and human hepatic stellate cells (Innoprot, Bizkia, Spain) were cultured in a P60126 medium (Innoprot).
(§2) All cells were maintained under a 5% humidified carbon dioxide condition at 37° C. The cultured cells were exposed to each of PDGF, TGFβ, and the compounds of Formulas A1 to A9 (CBM-N1 N9) for 24 hours, followed by performing experiments.
(§3) Cells were lysed with a protein extraction buffer solution, a protein concentration in a supernatant was determined by Bradford analysis, and […] of the protein was loaded on an SDS-PAGE gel and then transferred to a nitrocellulose membrane. The nitrocellulose membrane was blocked with 5% BSA-containing TEST (10 mM Tris-HCl, 150 mM NaCl, and 0.1% (v/v) Tween-20, pH 7.6) at room temperature for 1 hour. Blots were incubated overnight with primary antibodies, and then incubated with horseradish peroxidase-conjugated secondary antibodies for 1 hour. Bands were visualized by chemiluminescence. Data collection and processing were performed using an image analyzer (LAS-3000) and IMAGE GAUSE software (Fuji film, Japan).

fibroblasts = assay: MTT cell proliferation in fibroblasts exposed to TGFβ or PDGF; type: cell-based; settings: for TGFβ or PDGF-induced cell proliferation: fibroblasts, TGFβ (5 ng/ml) or PDGF (20 ng/ml), 24 hours
Protocol: as §1, §2
Cells were seeded in 96-well plates at 2×10^4 cells/well, and then exposed to TGFB, which promotes cell proliferation, for 24 hours. In addition, 0.1 mg of MTT was added to each well, followed by exposure for 4 hours at 37° C. Afterward, the culture medium was removed, the cells were lysed with dimethyl sulfoxide, and then absorbance was measured at 590 nm using the following devices.

KCa2.3 channel [2] = assay: KCa2.3 channel expression in vascular endothelial cells (real-time PCR, western blotting); type: cell-based, human
Protocol: as §1, §2
The mRNA expression levels of inflammation or fibrosis factors in extracted liver tissue were measured by real-time PCR. RNA of the liver tissue was isolated with a TRIzol reagent (Molecular Research Center, Cincinnati, Ohio), and single-stranded cDNA was synthesized using BcaBEST polymerase (TakaraShuzo), followed by a polymerase chain reaction.
Cells were lysed with a protein extraction buffer solution, a protein concentration in a supernatant was determined by Bradford analysis, and […] of the protein was loaded on an SDS-PAGE gel and then transferred to a nitrocellulose membrane. The nitrocellulose membrane was blocked with 5% BSA-containing TEST (10 mM Tris-HCl, 150 mM NaCl, and 0.1% (v/v) Tween-20, pH 7.6) at room temperature for 1 hour. […]

KCa3.1 channel = KCa3.1 channel expression in vascular endothelial cells; type: cell-based, human; settings: PDGF treatment, 24 hours
Protocol: as §1, §2, §3

[3] = test system: TAA-induced liver disease mouse models; assay: TAA-induced liver disease mouse model; type: in vivo; settings: TAA mice; for ALT levels / AST blood levels: blood, mean±S.E.M
Protocol: (§4) To confirm the effects of the compounds of Formula A1 to A5 (CBM-N1˜N5) according to the present invention on liver inflammation and fibrosis, subsequent experiments were performed on […] wild-type mouse (purchased from Orient Bio). First, to induce liver disease in mice, thioacetamide (TAA) were administered to the mice (Experiment A), or the mice were raised on a western diet inducing fatty liver disease (Experiment B). The mice were divided into a normal control, a disease-induced group, and a drug-administered group, and among these three groups, […] were used in each group for Experiment A, and 10 mice were used in each group for Experiment B. A drug treatment method for the mice in each group is as follows:
(§5) (1) Normal control: The normal control in Experiment A was intraperitoneally injected three times a week with the same amount of TAA solvent used when TAA was injected into a disease-induced group, and the normal control in Experiment B was raised on a normal diet. In both of the Experiments A and B, a CM/1-N1 solvent was injected using an oral tube at the same amount as that of CBM-N1 injection five times a week. The TAA solvent was distilled water, the CBM-N1 solvent and a derivative thereof were a 1:1 mixture of DMSO and distilled water. In the accompanying drawings, C or Control refers to a normal control.
(2) Disease-induced group: The disease-induced group in the Experiment A was intraperitoneally injected with TAA at 100 mg/kg three times a week, the disease-induced group in the Experiment B was raised on a western diet (WD, 45% saturated fat, […], and water containing fructose and glucose). All CBM-N1 solvents in the Experiments A and B were administered using an oral tube at the same amount as that of CBM-N1 administration five times a week. In the accompanying drawings, TAA refers to a group in which a disease is induced by TAA, and \VD refers to a group in which a disease is induced by a western diet.
(3) Drug-administered group: In the Experiment A, the compounds of Formulas 1 to 5 (50 mg/kg/day, 5 times/week e administered with TAA (100 mg/kg, 3 times/week), and in the Experiment B, CBM-N1 to N5 (50 mg/kg/day, 5 times/week) were administered with a western diet. The mice treated by the above-described method for 16 weeks were instantly killed by excessively administering an anesthetic, and then the livers and blood were extracted. In the accompanying drawings, TAA+CBM-Ni, TAA+CBM-N2, TAA+CBM-N3, TAA+CBM-N4 and TAA+CBM-N5 refer to disease-induced groups to which the compounds of Formulas A1 to A5 were administered, respectively.
(§6) To histologically confirm the therapeutic effect of the compound of Formula A1 (CBM-N1) or the compound of Formula A9 (CBM-N9) in each mouse model, a paraffin tissue sample was prepared. Liver and lung tissues were fixed with a paraformaldehyde solution, and sliced to a thickness of 1 to 2 mm. The sectioned tissues were embedded in paraffin, sliced to a thickness of 4 μm to remove paraffin with xylene, and the xylene was removed with ethanol, followed by washing with tap water. The resulting tissues were subjected to hematoxylin and eosin staining (H&E staining) or immunohistochemistry.
(1) H&E staining: Nuclei were first stained (blue) with a Harris hematoxylin staining solution for 5 minutes, and counter-stained (pink) with an eosin solution.
(2) Immunohistochemistry for inflammation markers: Inflammation markers (CD82 and CD45) were stained with specific antibodies, and lymphoid cells were stained brown.
(3) Immunohistochemistry for fibrosis markers: Collagen was stained by Masson's trichrome staining, or reticulin fibers were stained by reticulin staining.
Aspartic acid aminotransferase (AST, GOT) and alanine aminotransferase (ALT, GPT), total bilirubin and albumin concentrations were measured using blood collected from liver disease mouse models. […]

KCa2.3 channel [4] = assay: KCa2.3 current in hepatic stellate cells (whole-cell patch-clamp); type: cell-based, human; settings: membrane potential of 1-50 mV, exposure for 24 hours
Protocol: as §1, §2
A whole cell current through a cell membrane in the isolated and cultured single cells was measured using a patch-clamp technique. […]
A standard external solution contained 150 mM NaCl, 6 mM KCl, 1.5 mM CaCl2), 1 mM MgCl2, 10 mM HEPES and 10 mM glucose at pH 7.4 (titrated NaOH), and a micro glass electrode (pipette) solution contained 40 mM KCl, 100 mM K-aspartate, 2 mM MgCl2, 0.1 mM EGTA, 4 mM Na2ATP and 10 mM HEPES at pH 7.2 (titrated with KOH). A free Ca^2+ concentration in the pipette solution was adjusted to 1 μM by adding an appropriate amount of Ca^2+ in the presence of 5 mM EGTA (calculated with CaBuf; Droogmans, Leuven, Belgium), […]

[5] = test system: bleomycin-induced pulmonary fibrosis mouse models; assay: Bleomycin-induced pulmonary inflammation and fibrosis mouse model; type: in vivo; settings: lung tissue, bleomycin mice
Protocol: To confirm the effect of the compound of Formula A9 (CBM-N9) on pulmonary inflammation and fibrosis caused by bleomycin, the following experiments were performed on C57BL/6 wild-type mice. First, the mice were divided into a normal control, a disease-induced group, and a drug-administered group, and ten mice were included in each of the three groups. A drug treatment method for the mice in each group is as follows:
(1) Normal control: The same amount of distilled water as used when the bleomycin was applied in the disease-induced group was instilled intratracheally. In addition, a CBM-N9 solvent was intraperitoneally injected at the same amount used when CBM-N9 was administered to the disease-induced group to be described below five times a week.
(2) Disease-induced group: 1.5 units of bleomycin was instilled intratracheally. In addition, a CBM-N9 solvent was intraperitoneally injected at the same amount used in CBM-N9 administration five times a week.
(3) Drug-administered group: 1.5 units of bleomycin was intratracheally instilled. In addition, CBM-N9 (50 mg/kg) was injected intraperitoneally five times a week.
The mice treated with the drug for 4 weeks in the same manner as described above were instantly killed by excessively administering an anesthetic, and then the lungs were extracted.
as §6, with “The resulting tissues were subjected to hematoxylin and eosin staining (H&E staining) or immunohistochemistry.” left out
Cells were lysed with a protein extraction buffer solution, a protein concentration in a supernatant was determined by Bradford analysis, and […] of the protein was loaded on an SDS-PAGE gel and then transferred to a nitrocellulose membrane. […]

[6] = test system: fibrosis markers (α-SMA, collagen 1α, collagen 3α) in fibroblasts; assay: Expression of fibrosis markers in fibroblasts exposed to TGFβ (western blotting); type: cell-based; settings: fibroblasts exposed to TGFβ (5 ng/ml) + compound for 24 hours
Protocol: as §1, §2, §3

KCa2.3 channel [7] = assay: KCa2.3 channel protein expression in fibroblasts (western blotting); type: cell-based
Protocol: as §1, §2, §3

[8] = test system: western diet-induced liver disease mouse models; assay: Western diet-induced liver disease mouse model; type: in vivo; settings: western diet mice
Protocol: as §4, §5
(2) Disease-induced group: The disease-induced group in the Experiment A was intraperitoneally injected with TAA at 100 mg/kg three times a week, the disease-induced group in the Experiment B was raised on a western diet (WD, 45% saturated fat, […], and water containing fructose and glucose). […]
Aspartic acid aminotransferase (AST, GOT) and alanine aminotransferase (ALT, GPT), total bilirubin and albumin concentrations were measured using blood collected from liver disease mouse models.
The mRNA expression levels of inflammation or fibrosis factors in extracted liver tissue were measured by real-time PCR. […]

[9] = liver tissue, versus disease-induced group
[10] = blood, 50 mg/kg/day, 16 weeks, mean±S.E.M

KCa3.1 channel, sequence (O15554 whole entry): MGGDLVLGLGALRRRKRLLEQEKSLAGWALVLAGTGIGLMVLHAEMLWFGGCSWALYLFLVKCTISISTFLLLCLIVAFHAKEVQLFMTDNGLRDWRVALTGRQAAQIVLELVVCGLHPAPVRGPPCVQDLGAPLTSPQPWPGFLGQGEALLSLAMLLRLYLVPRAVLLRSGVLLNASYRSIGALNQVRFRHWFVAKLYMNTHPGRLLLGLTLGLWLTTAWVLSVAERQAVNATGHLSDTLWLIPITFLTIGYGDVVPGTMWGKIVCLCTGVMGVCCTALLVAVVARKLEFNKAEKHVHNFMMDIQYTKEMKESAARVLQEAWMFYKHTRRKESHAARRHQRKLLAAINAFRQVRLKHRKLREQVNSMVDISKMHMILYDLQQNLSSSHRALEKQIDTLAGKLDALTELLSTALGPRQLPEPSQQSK

Row | Molecule | expression of the KCa2.3 channel protein (KCa2.3 channel [1]) | ALT levels ([3]; 50 mg/kg/day, 16 weeks) | AST blood levels ([3]; 50 mg/kg/day, 16 weeks) | mRNA level of inflammation factors (inflammatory cytokines TNFα, CCL2, IL12, TGF, IL1α, IL6, MIP-2) [3, 9] | also measured
1 | NC(=O)C[S+]([O-])C(c1cccc(F)c1)c1cccc(F)c1 (stereo not shown) [CBM-N8, 2-[bis(3-fluorophenyl)methanesulfinyl]acetamide] | significantly reduced |  |  |  | TGFβ or PDGF-induced cell proliferation (fibroblasts): significantly reduced
2 | PDGF |  |  |  |  | expression of the mRNA and protein of the KCa2.3 channel (KCa2.3 channel [2]; vascular endothelial cells exposed to PDGF (20 ng/ml) or TGF (5 ng/ml) for 24 hours): increased; expression of the KCa3.1 channel (KCa3.1 channel): did not increase
3 | O=C(CSC(c1ccccc1)c1ccccc1)NCC1CCCO1 (stereo not shown) [CBM-N2, 2-(benzhydrylthio)-N-[(tetrahydrofuran-2-yl)methyl]acetamide] | significantly reduced | 113.4±7.9 units/L | 83.6±14.8 units/L | decreased | 
4 | O=C(CSC(c1ccccc1)c1ccccc1)Nc1ccccc1 [CBM-N3, 2-(benzhydrylthio)-N-phenylacetamide] |  | 103.0±6.9 units/L | 73.4±7.4 units/L | decreased | 
5 | NC(=O)C[S+]([O-])C(c1ccc(F)cc1)c1ccc(F)cc1 (stereo not shown) [CBM-N9, 2-[bis(4-fluorophenyl)methanesulfinyl]acetamide] | significantly reduced |  |  |  | KCa2.3 current densities versus cells not exposed (KCa2.3 channel [4]): significantly decreased; TGFβ or PDGF-induced cell proliferation (fibroblasts): significantly reduced; degrees of inflammation and fibrosis (H&E, CD45 immunohistochemistry, Masson's trichrome) ([5]; 50 mg/kg intraperitoneally five times a week, 4 weeks, versus disease-induced group): decreased; protein expression levels of inflammation markers TIMP-2 and CCR2 ([5]; FIG. 13A): greatly decreased; expression of fibrosis marker proteins (printed: protein expression levels of TIMP-2 and, CCR2) ([5]; FIG. 13B): greatly decreased
6 | O=C(C[S+]([O-])C(c1ccccc1)c1ccccc1)NCC1CCCO1 (stereo not shown) [CBM-N5, 2-(benzhydrylsulfinyl)-N-[(tetrahydrofuran-2-yl)methyl]acetamide] | significantly reduced | 106.4±12.8 units/L | 67.7±10.2 units/L | decreased | 
7 | CNC(=O)C[S+]([O-])C(c1ccccc1)c1ccccc1 (stereo not shown) [CBM-N4, 2-(benzhydrylsulfinyl)-N-methylacetamide] |  | 114.1±8.8 units/L | 66.6±9.4 units/L | decreased | 
8 | NC(=O)C[S+]([O-])C(c1ccccc1)c1ccccc1 (stereo not shown) [CBM-N1, 2-(benzhydrylsulfinyl)acetamide] | reduced in hepatic stellate cells in a concentration-dependent manner | 70.3±14.7 units/L | 62.7±11.6 units/L | decreased | expression of the KCa2.3 channel protein (KCa2.3 channel [2]; vascular endothelial cells with KCa2.3 expression increased with PDGF, treated for 24 hours): significantly decreased; expression levels of the fibrosis markers (α-SMA, collagen 1α, collagen 3α proteins) [6]: reduced; expression level of the KCa2.3 channel protein (KCa2.3 channel [7]): reduced; ALT levels [8, 10]: 87.2±24.7 units/L; AST blood levels [8, 10]: 71.4±19.8 units/L; mRNA expression levels of inflammatory cytokines CCL2, IL6 and IL1α [8, 9]: decreased; cell proliferation (fibroblasts; fibroblasts exposed to TGFβ (5 ng/ml) + compound for 24 hours): inhibited; number of inflammation cells (H&E staining of liver tissue) ([3]; 50 mg/kg/day, 16 weeks, versus disease-induced group): significantly decreased; mRNA expression levels of fibrosis markers (Col1α, Col3α, Col4α, α-SMA, TGFR2) ([3]; liver tissue): decreased
